Source: ChEMBL document CHEMBL1131899, “First fatty acylated dipeptides to affect muscarinic receptor ligand binding” (Bioorg Med Chem Lett, 1999)
Where a SMILES comes first, the peptide text is derived from it. The star is where a group is joined. Palmitoyl = CCCCCCCCCCCCCCCC(=O)*; Myristoyl = CCCCCCCCCCCCCC(=O)*; OBn = c1ccc(CO*)cc1

What was measured:
[1] = target: T1, Muscarinic acetylcholine receptor M1 (Homo sapiens) (UniProt P11229); test: (§1) Binding of [3H]QNB to HM1 receptor was evaluated by saturation binding assay
T1 sequence (whole entry): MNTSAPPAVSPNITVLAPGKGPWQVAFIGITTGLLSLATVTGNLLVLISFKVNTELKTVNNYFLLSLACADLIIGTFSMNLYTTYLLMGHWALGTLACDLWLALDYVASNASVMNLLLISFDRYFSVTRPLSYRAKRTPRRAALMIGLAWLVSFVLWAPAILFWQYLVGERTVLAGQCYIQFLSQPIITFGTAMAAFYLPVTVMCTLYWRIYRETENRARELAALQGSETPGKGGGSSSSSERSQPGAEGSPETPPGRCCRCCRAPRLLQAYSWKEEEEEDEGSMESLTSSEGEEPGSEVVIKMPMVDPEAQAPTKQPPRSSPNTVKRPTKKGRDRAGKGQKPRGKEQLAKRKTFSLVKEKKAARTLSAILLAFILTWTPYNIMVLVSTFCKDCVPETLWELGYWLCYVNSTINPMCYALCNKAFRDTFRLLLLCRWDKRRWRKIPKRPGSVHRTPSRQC

[2] = target: T2, Muscarinic acetylcholine receptor M1 (Homo sapiens, UniProt P11229); test: as §1
T2 sequence (P11229 whole entry): T1 sequence (whole entry)

[3] = target: T3, Muscarinic acetylcholine receptor M2 (Homo sapiens) (UniProt P08172); test: (§2) Binding of [3H]QNB to HM2 receptor was evaluated by saturation binding assay
T3 sequence (whole entry): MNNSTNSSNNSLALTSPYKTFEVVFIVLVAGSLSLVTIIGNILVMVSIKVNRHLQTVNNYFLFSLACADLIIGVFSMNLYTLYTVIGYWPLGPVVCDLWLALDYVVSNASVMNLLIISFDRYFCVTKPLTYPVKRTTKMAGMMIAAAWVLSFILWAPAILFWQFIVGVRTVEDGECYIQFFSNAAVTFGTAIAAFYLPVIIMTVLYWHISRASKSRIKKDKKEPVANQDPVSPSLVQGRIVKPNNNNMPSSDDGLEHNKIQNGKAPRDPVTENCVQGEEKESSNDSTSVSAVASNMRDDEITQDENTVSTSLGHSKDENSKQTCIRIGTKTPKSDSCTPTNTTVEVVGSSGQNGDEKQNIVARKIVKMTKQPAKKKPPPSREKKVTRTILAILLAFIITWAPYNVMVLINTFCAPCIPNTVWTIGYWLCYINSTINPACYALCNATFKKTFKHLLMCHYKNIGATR

[4] = target: T4, Muscarinic acetylcholine receptor M2 (Homo sapiens, UniProt P08172); test: as §2
T4 sequence (P08172 whole entry): T3 sequence (whole entry)

**Q.** Which Bmax [1] does the source give for CCCCCCCCCCCCCC(=O)NCC(=O)N[C@@H](CO)C(=O)OCc1ccccc1 (Myristoyl-Gly-Ser-OBn) here?
**A.** The Bmax was 1.7 pmol/mg.

**Q.** And the Kd [2]?
**A.** Its Kd is 0.04 nM.

**Q.** What about the Bmax [3] of the same compound?
**A.** The Bmax was 0.8 pmol/mg.

**Q.** What about the Kd [4] of the same compound?
**A.** Its Kd is 0.15 nM.

**Q.** With CCCCCCCCCCCCCCCC(=O)OC[C@H](NC(=O)CNC(=O)CCCCCCCCCCCCC)C(=O)OCc1ccccc1 (Myristoyl-Gly-Ser(Palmitoyl)-OBn) as the compound, how does the Bmax [1] read?
**A.** Its Bmax is 1.2 pmol/mg.

**Q.** And the Kd [2]?
**A.** The Kd was 0.03 nM.

**Q.** And the Bmax [3]?
**A.** The Bmax was 1.8 pmol/mg.

**Q.** And the Kd [4]?
**A.** Its Kd is 1.78 nM.
